Measured values as given in the NIST ThermoML archive (doi:10.1016/j.jct.2015.08.014).
Numbers after ± are expanded uncertainties.

Settings: Liquid; for electrical conductivity: Alternating current cell with electrodes; for viscosity: Capillary tube (Ostwald / Ubbelohde) method; for mass density: Vibrating tube method

CCCC[N+]1(C)CCCC1.N#CN=C=[N-] [1-butyl-1-methylpyrrolidinium dicyanamide]
electrical conductivity [S/m], 100 kPa
Settings | 273.15 K | 283.15 K | 293.15 K | 298.15 K
Frequency=0.0005 MHz | 0.522 ± 0.005 | 0.786 ± 0.008 | 1.122 ± 0.011 | 1.315 ± 0.013
Frequency=0.001 MHz | 0.522 ± 0.005 | 0.786 ± 0.008 | 1.122 ± 0.011 | 1.316 ± 0.013
Frequency=0.0015 MHz | 0.522 ± 0.005 | 0.786 ± 0.008 | 1.123 ± 0.011 | 1.316 ± 0.013
Frequency=0.002 MHz | 0.522 ± 0.005 | 0.786 ± 0.008 | 1.123 ± 0.011 | 1.316 ± 0.013
Frequency=0.0025 MHz | 0.522 ± 0.005 | 0.786 ± 0.008 | 1.123 ± 0.011 | 1.317 ± 0.013
Frequency=0.003 MHz | 0.522 ± 0.005 | 0.786 ± 0.008 | 1.123 ± 0.011 | 1.317 ± 0.013
Frequency=0.00347222 MHz | 0.523 ± 0.005 | 0.786 ± 0.008 | 1.123 ± 0.011 | 1.317 ± 0.013
Frequency=0.004 MHz | 0.523 ± 0.005 | 0.786 ± 0.008 | 1.123 ± 0.011 | 1.317 ± 0.013
Frequency=0.00446429 MHz | 0.523 ± 0.005 | 0.786 ± 0.008 | 1.123 ± 0.011 | 1.317 ± 0.013
Frequency=0.005 MHz | 0.523 ± 0.005 | 0.786 ± 0.008 | 1.123 ± 0.011 | 1.317 ± 0.013
Frequency=0.005454 MHz | 0.523 ± 0.005 | 0.786 ± 0.008 | 1.123 ± 0.011 | 1.317 ± 0.013
Frequency=0.006 MHz | 0.523 ± 0.005 | 0.786 ± 0.008 | 1.123 ± 0.011 | 1.317 ± 0.013
Frequency=0.00652174 MHz | 0.523 ± 0.005 | 0.786 ± 0.008 | 1.123 ± 0.011 | –
Frequency=0.00694444 MHz | 0.523 ± 0.005 | 0.786 ± 0.008 | 1.123 ± 0.011 | –
Frequency=0.0075 MHz | 0.523 ± 0.005 | 0.786 ± 0.008 | 1.123 ± 0.011 | –
Frequency=0.008 MHz | 0.523 ± 0.005 | 0.786 ± 0.008 | 1.123 ± 0.011 | –
Frequency=0.00857143 MHz | 0.523 ± 0.005 | 0.786 ± 0.008 | 1.123 ± 0.011 | –
Frequency=0.00892857 MHz | 0.523 ± 0.005 | 0.786 ± 0.008 | 1.124 ± 0.011 | –
Frequency=0.00961538 MHz | 0.523 ± 0.005 | 0.786 ± 0.008 | 1.124 ± 0.011 | –
Frequency=0.01 MHz | 0.523 ± 0.005 | 0.786 ± 0.008 | 1.124 ± 0.011 | –

101.33 kPa
Settings | electrical conductivity [S/m] | mass density [kg/m3] | viscosity [mPa·s]
273.15 K | 0.523 ± 0.005 | 1027.69 ± 8.3 | 93.95 ± 2.3
278.15 K | 0.645 ± 0.007 | 1024.82 ± 8.2 | 74.27 ± 1.7
283.15 K | 0.786 ± 0.008 | 1021.96 ± 8.2 | 59.6 ± 1.4
288.15 K | 0.943 ± 0.009 | 1019.11 ± 8.2 | 48.6 ± 1.1
293.15 K | 1.123 ± 0.011 | 1016.28 ± 8.2 | 40.25 ± 0.91
